Results on two molecules are retold here after patent publication US20030134832A1, “Novel tibolone formulations” (priority 2001, published 2003).

Take `O=C([O-])O.[Na+]` [Sodium Bicarbonate, sodium bicarbonate]: the “pH of 1% w/v aqueous solution” value is on record as “pH 8.2”.
Consider `O=C([O-])CC(O)(CC(=O)[O-])C(=O)[O-].[Na+].[Na+].[Na+]` [Sodium Citrate, sodium citrate], for which the “pH of 1% w/v aqueous solution” value is “pH 8.75”.
